# Experimental data as given in patent US20260000694A1, “METHODS AND COMPOSITIONS RELATED TO PREBIOTIC FORMULATIONS USEFUL IN PROMOTING UROGENITAL HEALTH” (KIMBERLY-CLARK WORLDWIDE, INC., priority 2022, published 2026).
# “And” between values parts separate entries of the source, which are not always exact repeats. Identical values can stand only once.
# Experiments:
# Assay type in all cases: cell-based
# [1] = system: Streptococcus anginosus KC18-1131-3B; experiment: Competition (co-culture) assay: recovery of S. anginosus after exposure to prebiotics; conditions: 48 hours, one value per replicate; for S. anginosus Δ on MRS / S. anginosus Δ on TSA: change vs start, background growth in media without prebiotic subtracted, co-culture; for S. anginosus Recovered on MRS / S. anginosus Recovered on TSA: co-culture with L. crispatus in API 50 CHL media with prebiotic (% w/v in label), anaerobic 37° C.
# Experimental: (§1) The methods used herein were adapted from Vongsa et al. The method used in this particular example is as follows: • 1. A stock was created using a single prebiotic, a prebiotic mixture, or the positive control (glucose) in API 50 CHL media (Biomerieux, Marcy-l'Étoile, France). API 50 CHL media containing minimal amounts of carbon for growth and bromocresol purple as a pH indicator of fermentation. The stock media was filter-sterilized with a 0.22 μM filter and store at 4-6° C. • 2. From a freezer stock, the bacteria were subcultured twice into De Man, Rogosa, and Sharpe (MRS) broth (BD Difco, Becton Dickinson, Franklin Lakes, NJ) and incubated at 37° C. anaerobically overnight until stationary. • 3. The second MRS broth subculture was plated onto an MRS agar plate for Lactobacillus crispatus KC18-1173-1 or blood agar for Streptococcus anginosus KC18-1131-3B and incubated at 37° C. anaerobically overnight until stationary. • 4. A bacterial suspension was created for each bacterium using a sterile tipped swab to transfer colonies into API suspension media (Biomerieux, Marcy-l'Étoile, France) to reach the turbidity of a 2 MacFarland standard. • 5. The starting culture was enumerated. • 6. 9.8 mL of the prebiotic media was added into a sterile 15 mL conical tube. • 7. 100 μL of each prepared bacterial suspension was added to the media, and it was incubated anaerobically at 37° C. for 48 hours. • 8. 100 μL were harvested from each tube containing the bacteria and prebiotic media, it was serially diluted, and plated onto MRS agar and tryptic soy agar (TSA). • 9. The bacteria were enumerated on MRS agar (both L. crispatus and S. anginosus). Small colonies were counted as S. anginosus, and large colonies were counted as L. crispatus. • 10. S. anginosus was enumerated on TSA plates. […] Background growth of bacteria in the negative control (CHL media without prebiotics) was subtracted from the growth recovered in the presence of the prebiotic mixture. • 12. Statistical analysis was performed using Student's t-test. The significance level was set at p<0.05.
# [2] = system: Lactobacillus crispatus KC18-1173-1 to Streptococcus anginosus KC18-1131-3B; experiment: Competition (co-culture) assay: ratio of L. crispatus to S. anginosus recovered; conditions: average CFU/mL L. crispatus on MRS divided by average CFU/mL S. anginosus on TSA, 48 hours
# Experimental: as §1
# [3] = system: Lactobacillus crispatus KC18-1173-1; experiment: Competition (co-culture) assay: recovery of L. crispatus after exposure to prebiotics; conditions: 48 hours, one value per replicate; for L. crispatus Δ on MRS: change vs start, background growth in media without prebiotic subtracted, co-culture; for L. crispatus Recovered on MRS: co-culture with S. anginosus in API 50 CHL media with prebiotic (% w/v in label), anaerobic 37° C.
# Experimental: as §1
SMILES,S. anginosus Δ on MRS [1],S. anginosus Δ on TSA [1],S. anginosus Recovered on MRS [1],S. anginosus Recovered on TSA [1],Ratio (L. crispatus/S. anginosus) [2],L. crispatus Δ on MRS [3],L. crispatus Recovered on MRS [3]
"O=C(CO)[C@@H](O)[C@H](O)[C@H](O)CO[C@H]1O[C@H](CO)[C@@H](O)[C@H](O)[C@H]1O [Palatinose ™ (2.0), 6-O-α-D-glucopyranosyl-D-fructose]",−1.83 Log CFU/mL and −2.08 Log CFU/mL and −2.03 Log CFU/mL and −1.82 Log CFU/mL and −1.69 Log CFU/mL,−1.48 Log CFU/mL and −2.41 Log CFU/mL and −2.00 Log CFU/mL and −2.42 Log CFU/mL and 2.39 Log CFU/mL,4.78 Log CFU/mL and 4.00 Log CFU/mL and 4.70 Log CFU/mL and 4.88 Log CFU/mL and 5.16 Log CFU/mL,5.00 Log CFU/mL and 4.04 Log CFU/mL and 4.70 Log CFU/mL and 4.53 Log CFU/mL and 4.74 Log CFU/mL,"2,681",2.10 Log CFU/mL and 2.30 Log CFU/mL and 2.77 Log CFU/mL and 3.24 Log CFU/mL and 1.90 Log CFU/mL,7.93 Log CFU/mL and 8.00 Log CFU/mL and 8.19 Log CFU/mL and 8.37 Log CFU/mL and 7.98 Log CFU/mL
"OC[C@@H](O)[C@@H](O[C@@H]1O[C@H](CO)[C@H](O)[C@H](O)[C@H]1O)[C@H](O)[C@@H](O)CO [D-Lactitol (2.0), D-Lactitol]",0.75 Log CFU/mL and 0.69 Log CFU/mL,0.58 Log CFU/mL and 0.52 Log CFU/mL,7.45 Log CFU/mL and 7.54 Log CFU/mL,7.43 Log CFU/mL and 7.65 Log CFU/mL,0,0.77 Log CFU/mL and 0.66 Log CFU/mL,5.90 Log CFU/mL and 6.74 Log CFU/mL
"OC[C@H]1O[C@@H](O[C@@H]2[C@@H](CO)OC(O)(CO)[C@H]2O)[C@H](O)[C@@H](O)[C@H]1O (mixture of isomers) [Lactulose (2.0), Lactulose]",−6.73 Log CFU/mL and −2.23 Log CFU/mL and −2.53 Log CFU/mL and −6.61 Log CFU/mL and −6.08 Log CFU/mL,−3.85 Log CFU/mL and −2.17 Log CFU/mL and −3.70 Log CFU/mL and −3.74 Log CFU/mL and −3.67 Log CFU/mL,0.00 Log CFU/mL (3×) and 4.11 Log CFU/mL and 3.40 Log CFU/mL,2.85 Log CFU/mL and 4.23 Log CFU/mL and 2.00 Log CFU/mL and 2.74 Log CFU/mL and 2.78 Log CFU/mL,"37,556",2.38 Log CFU/mL and 2.80 Log CFU/mL and 2.58 Log CFU/mL and 2.60 Log CFU/mL and 2.69 Log CFU/mL,7.74 Log CFU/mL and 8.10 Log CFU/mL and 8.28 Log CFU/mL and 8.30 Log CFU/mL and 8.11 Log CFU/mL
"CO[C@H]1O[C@H](CO)[C@@H](O)[C@H](O)[C@H]1O [α-Methyl-D-Glucoside (2.0), α-Methyl-D-Glucoside]",−0.33 Log CFU/mL and 0.45 Log CFU/mL and 0.55 Log CFU/mL,0.34 Log CFU/mL and 0.62 Log CFU/mL and 0.41 Log CFU/mL,5.60 Log CFU/mL and 7.15 Log CFU/mL and 7.40 Log CFU/mL,6.04 Log CFU/mL and 7.47 Log CFU/mL and 7.54 Log CFU/mL,0,1.90 Log CFU/mL and 1.39 Log CFU/mL and 0.70 Log CFU/mL,7.20 Log CFU/mL and 6.52 Log CFU/mL and 6.78 Log CFU/mL
"OC[C@@H](O)[C@@H](O[C@H]1O[C@H](CO)[C@@H](O)[C@H](O)[C@H]1O)[C@H](O)[C@@H](O)CO [Maltitol (2.0), Maltitol]",−0.12 Log CFU/mL and −0.37 Log CFU/mL,0.41 Log CFU/mL and 0.47 Log CFU/mL,6.58 Log CFU/mL and 6.48 Log CFU/mL,7.26 Log CFU/mL and 7.60 Log CFU/mL,0,0.35 Log CFU/mL and −0.08 Log CFU/mL,5.48 Log CFU/mL and 6.00 Log CFU/mL
"OC[C@H]1O[C@@](CO)(OC[C@@]2(O[C@H]3O[C@H](CO)[C@@H](O)[C@H](O)[C@H]3O)O[C@H](CO)[C@@H](O)[C@@H]2O)[C@@H](O)[C@@H]1O [1-Kestose (2.0), 1-Kestose]",−6.61 Log CFU/mL and −6.08 Log CFU/mL and −5.03 Log CFU/mL and −3.64 Log CFU/mL and −3.63 Log CFU/mL,−3.74 Log CFU/mL and −6.45 Log CFU/mL and −4.15 Log CFU/mL and −4.00 Log CFU/mL (2×),0.00 Log CFU/mL (2×) and 1.70 Log CFU/mL and 2.70 Log CFU/mL and 2.30 Log CFU/mL,2.74 Log CFU/mL and 0.00 Log CFU/mL and 2.54 Log CFU/mL and 2.40 Log CFU/mL and 1.70 Log CFU/mL,"976,001",2.59 Log CFU/mL and 3.60 Log CFU/mL and 2.30 Log CFU/mL and 1.95 Log CFU/mL and 2.74 Log CFU/mL,7.95 Log CFU/mL and 8.90 Log CFU/mL and 8.00 Log CFU/mL and 7.65 Log CFU/mL and 8.16 Log CFU/mL
